Results as given in ChEMBL document CHEMBL4420081, “Novel benzylamino substituted quinazolines and derivatives as sos1 inhibitors” (2018).
Activity calls are given as the source filed them. No cut-off for these calls is given here.

What was measured:
[1] = tested on: MIA PaCa-2; settings: Homo sapiens, 50 mg/kg
Description: Antitumor activity against human MIAPaCa2 cells grown under 3D anchorage-independent soft-agar conditions at xenografted in BomTacNMRI-Foxn1 nu mouse assessed as inhibition of tumor regression at 50 mg/kg, po BID relative to control

[2] = tested on: NCI-H358; experiment: Induction of apoptosis in human NCI-H358 cells grown under 3D anchorage-independent soft-agar conditions at grown under 3D anchorage-independent soft-agar conditions assessed as induction of PARP cleavage at 1 uM incubated for 24 to 72 hrs by mesoscale assay; assay type: functional, cell-based
[3] = tested on: A549; experiment: Induction of apoptosis in human A549 cells grown under 3D anchorage-independent soft-agar conditions at grown under 3D anchorage-independent soft-agar conditions assessed as induction of PARP cleavage at 1 uM in presence of 10 nM of paclitaxel incubated for 24 to 48 hrs by mesoscale assay; assay type: functional, cell-based
[4] = tested on: NCI-H358; experiment: Induction of apoptosis in human NCI-H358 cells grown under 3D anchorage-independent soft-agar conditions at grown under 3D anchorage-independent soft-agar conditions assessed as induction of PARP cleavage at 1 uM in presence of 125 nM of afatinib incubated for 24 hrs by mesoscale assay; assay type: functional, cell-based
[5] = tested on: NCI-H358; experiment: Growth inhibition of human NCI-H358 cells grown under 3D anchorage-independent soft-agar conditions at 1000 nM incubated for 14 days by alamar blue dye based assay relative to control; assay type: functional; settings: NCI-H358, 336 h, read-out: GI
[6] = tested on: NCI-H358; experiment: Growth inhibition of human NCI-H358 cells grown under 3D anchorage-independent soft-agar conditions at 12.3 nM incubated for 14 days by alamar blue dye based assay relative to control; assay type: functional; settings: NCI-H358, 336 h, read-out: GI
[7] = tested on: NCI-H1792; experiment: Growth inhibition of human NCI-H1792 cells grown under 3D anchorage-independent soft-agar conditions at 333 nM incubated for 14 days by alamar blue dye based assay relative to control; assay type: functional; settings: NCI-H1792, 336 h, read-out: GI
[8] = tested on: NCI-H358; experiment: Growth inhibition of human NCI-H358 cells grown under 3D anchorage-independent soft-agar conditions at 333 nM incubated for 14 days by alamar blue dye based assay relative to control; assay type: functional; settings: NCI-H358, 336 h, read-out: GI
[9] = tested on: NCI-H1792; experiment: Growth inhibition of human NCI-H1792 cells grown under 3D anchorage-independent soft-agar conditions at 12.3 nM incubated for 14 days by alamar blue dye based assay relative to control; assay type: functional; settings: NCI-H1792, 336 h, read-out: GI
[10] = tested on: NCI-H358; experiment: Growth inhibition of human NCI-H358 cells grown under 3D anchorage-independent soft-agar conditions at 111 nM incubated for 14 days by alamar blue dye based assay relative to control; assay type: functional; settings: NCI-H358, 336 h, read-out: GI
[11] = tested on: NCI-H1792; experiment: Growth inhibition of human NCI-H1792 cells grown under 3D anchorage-independent soft-agar conditions at 111 nM incubated for 14 days by alamar blue dye based assay relative to control; assay type: functional; settings: NCI-H1792, 336 h, read-out: GI
[12] = tested on: NCI-H1792; experiment: Growth inhibition of human NCI-H1792 cells grown under 3D anchorage-independent soft-agar conditions at 1000 nM incubated for 14 days by alamar blue dye based assay relative to control; assay type: functional; settings: NCI-H1792, 336 h, read-out: GI
[13] = tested on: NCI-H358; experiment: Growth inhibition of human NCI-H358 cells grown under 3D anchorage-independent soft-agar conditions at 37 nM incubated for 14 days by alamar blue dye based assay relative to control; assay type: functional; settings: NCI-H358, 336 h, read-out: GI
[14] = tested on: NCI-H1792; experiment: Growth inhibition of human NCI-H1792 cells grown under 3D anchorage-independent soft-agar conditions at 37 nM incubated for 14 days by alamar blue dye based assay relative to control; assay type: functional; settings: NCI-H1792, 336 h, read-out: GI
[15] = target: T1, Mitogen-activated protein kinase; ERK1/ERK2 (Homo sapiens) (UniProt P27361+P28482); experiment: Inhibition of ERK1/2 phosphorylation in human MIAPaCa2 cells grown under 3D anchorage-independent soft-agar conditions at assessed as increase in MEK1/2 phosphorylation at Ser 217/221 residues at 25 nM incubated for 2 to 8 hrs by Western blotting analysis; assay type: cell-based
[16] = target: T1, Mitogen-activated protein kinase; ERK1/ERK2 (Homo sapiens); experiment: Inhibition of ERK1/2 phosphorylation at Thr202/Tyr204 residues in human MIAPaCa2 cells grown under 3D anchorage-independent soft-agar conditions at 50 nM incubated for 2 to 8 hrs by Western blotting analysis relative to control; assay type: cell-based
[17] = tested on: MIA PaCa-2; experiment: Antitumor activity against human MIAPaCa2 cells grown under 3D anchorage-independent soft-agar conditions at xenografted in BomTacNMRI-Foxn1 nu mouse assessed as inhibition of tumor regression at 0.05 mg/kg, po BID relative to control; assay type: functional, organism-based
[18] = tested on: MIA PaCa-2; experiment: Antitumor activity against human MIAPaCa2 cells grown under 3D anchorage-independent soft-agar conditions at xenografted in BomTacNMRI-Foxn1 nu mouse assessed as inhibition of tumor regression at 0.125 mg/kg, po BID relative to control; assay type: functional, organism-based
[19] = tested on: NCI-H358; experiment: Induction of apoptosis in human NCI-H358 cells grown under 3D anchorage-independent soft-agar conditions at grown under 3D anchorage-independent soft-agar conditions assessed as induction of PARP cleavage at 125 nM incubated for 48 hrs by mesoscale assay; assay type: functional, cell-based

T1 sequence (P27361 whole entry, looked up): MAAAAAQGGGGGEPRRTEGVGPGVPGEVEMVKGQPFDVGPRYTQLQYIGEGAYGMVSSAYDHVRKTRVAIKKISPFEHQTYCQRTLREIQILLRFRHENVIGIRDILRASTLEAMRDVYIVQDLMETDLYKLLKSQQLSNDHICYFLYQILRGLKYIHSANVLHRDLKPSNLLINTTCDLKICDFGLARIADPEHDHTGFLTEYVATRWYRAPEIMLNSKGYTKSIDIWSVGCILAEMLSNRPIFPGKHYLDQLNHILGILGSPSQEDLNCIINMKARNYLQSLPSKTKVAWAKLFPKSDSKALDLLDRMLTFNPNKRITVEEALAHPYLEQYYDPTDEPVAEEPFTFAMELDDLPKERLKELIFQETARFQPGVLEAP
T1 sequence (P28482 whole entry, looked up): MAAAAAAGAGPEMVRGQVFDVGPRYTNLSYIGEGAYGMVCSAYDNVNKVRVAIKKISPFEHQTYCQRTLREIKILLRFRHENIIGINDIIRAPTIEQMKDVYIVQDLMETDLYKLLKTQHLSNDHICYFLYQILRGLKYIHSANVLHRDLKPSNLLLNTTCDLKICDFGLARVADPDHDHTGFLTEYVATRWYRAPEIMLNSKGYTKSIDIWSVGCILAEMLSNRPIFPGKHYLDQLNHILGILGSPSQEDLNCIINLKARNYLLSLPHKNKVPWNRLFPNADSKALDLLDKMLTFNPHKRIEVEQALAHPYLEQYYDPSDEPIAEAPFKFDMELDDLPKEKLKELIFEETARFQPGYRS

Compound: COc1cc2nc(C)nc(N[C@H](C)c3cc(N)cc(C(F)(F)F)c3)c2cc1O[C@H]1CCOC1
- inhibition [1]: inactive
- Activity [2]: inactive
- Activity [3]: Active
- Activity [4]: Active

Compound: C=CC(=O)N1CCN(c2ncnc3c(F)c(-c4cc(O)cc5ccccc45)c(Cl)cc23)CC1
- inhibition of growth at 1 µM [5]: 180%
- inhibition of growth at 0.0123 µM [6]: 17%
- inhibition of growth at 0.333 µM [7]: 46%
- inhibition of growth at 0.333 µM [8]: 139%
- inhibition of growth at 0.0123 µM [9]: 5%
- inhibition of growth at 0.111 µM [10]: 87%
- inhibition of growth at 0.111 µM [11]: 42%
- inhibition of growth at 1 µM [12]: 81%
- inhibition of growth at 0.037 µM [13]: 47%
- inhibition of growth at 0.037 µM [14]: 29%

Compound: CC(=O)Nc1cccc(-n2c(=O)n(C3CC3)c(=O)c3c(Nc4ccc(I)cc4F)n(C)c(=O)c(C)c32)c1
- inhibition [15]: Active
- inhibition [16]: 65 to 75%
- inhibition [17]: inactive
- inhibition [18]: inactive

Compound: CN(C)C/C=C/C(=O)Nc1cc2c(Nc3ccc(F)c(Cl)c3)ncnc2cc1O[C@H]1CCOC1
- Activity [19]: Active
